In patent publication US9765035B2 (priority 2013, dated 2017):
Read-outs that look alike come from different tables or passages of the source.

How the values were obtained:
[1] = target: T1, human PRMT1 (Homo sapiens, UniProt Q99873); experiment: biochemical
T1 construct: GST-tagged PRMT1; made in house; host or cells: High Five insect cells (baculovirus)
Source text: General Materials. S-adenosylmethionine (SAM), S-adenosylhomocysteine (SAH), bicine, Tween20, dimethylsulfoxide (DMSO), bovine skin gelatin (BSG), and Tris(2-carboxyethyl)phosphine hydrochloride solution (TCEP) were purchased from Sigma-Aldrich at the highest level of purity possible. ^3H-SAM was purchase from American Radiolabeled Chemicals with a specific activity of 80 Ci/mmol. 384-well streptavidin Flashplates were purchased from PerkinElmer.
Substrates. Peptide representative of human histone H4 residues 36-50 was synthesized with an N-terminal linker-affinity tag motif and a C-terminal amide cap by 21st Century Biochemicals. The peptide was purified by high-performance liquid chromatography (HPLC) to greater than 95% purity and confirmed by liquid chromatography mass spectrometry (LC-MS). The sequence was Biot-Ahx-[…]-amide (SEQ ID NO.:1).
Molecular Biology: Full-length human PRMT1 isoform 1 (NM_001536.5) transcript clone was amplified from an HEK 293 cDNA library, incorporating flanking 5′ sequence encoding a FLAG tag ([…]) (SEQ ID NO.:2) fused directly to Met 1 of PRMT1. The amplified gene was subcloned into pFastBacI (Life Technologies) modified to encode an N-terminal GST tag and a TEV cleavage sequence
Protein Expression. Recombinant baculovirus were generated according to Bac-to-Bac kit instructions (Life Technologies). Protein over-expression was accomplished by infecting exponentially growing High Five insect cell culture at 1.5×10^6 cell/ml with 1:100 ratio of virus. Infections were carried out at 27° C. for 48 hours, harvested by centrifugation, and stored at −80° C. for purification.
Protein Purification. […] GST-tagged PRMT1 was eluted with 50 mM Tris, 2 mM glutathione, pH 7.8, dialysed in buffer A and concentrated to 1 mg/mL. The purity of recovered protein was 73%. Reference: Wasilko, D. J. and S. E. Lee: “TIPS: titerless infected-cells preservation and scale-up” Bioprocess J., 5 (2006), pp. 29-32.
General Procedure for PRMT1 Enzyme Assays on Peptide Substrates. The assays were all performed in a buffer consisting of 20 mM Bicine (pH=7.6), 1 mM TCEP, 0.005% BSG, and 0.002% Tween 20, prepared on the day of use. Compounds in 100% DMSO (1 ul) were spotted into a polypropylene 384-well V-bottom plates (Greiner) using a Platemate Plus outfitted with a 384-channel head (Thermo Scientific). DMSO (1 ul) was added to Columns 11, 12, 23, 24, rows A-H for the maximum signal control and 1 ul of SAH, a known product and inhibitor of PRMT1, was added to columns 11, 12, 23, 24, rows I-P for the minimum signal control. A cocktail (40 ul) containing the PRMT1 enzyme was added by Multidrop Combi (Thermo-Fisher). The compounds were allowed to incubate with PRMT1 for 30 min at room temperature, then a cocktail (10 ul) containing SAM and peptide was added to initiate the reaction (final volume=51 ul). The final concentrations of the components were as follows: PRMT1 was 0.5 nM, ^3H-SAM was 200 nM, non-radiolabeled SAM was 1.5 uM, peptide was 20 nM, SAH in the minimum signal control wells was 1 mM, and the DMSO concentration was 2%. The assays were stopped by the addition of non-radiolabeled SAM (10 ul) to a final concentration of 300 uM, which dilutes the ^3H-SAM to a level where its incorporation into the peptide substrate is no longer detectable. 50 ul of the reaction in the 384-well polypropylene plate was then transferred to a 384-well Flashplate and the biotinylated peptides were allowed to bind to the streptavidin surface for at least 1 hour before being washed once with 0.1% Tween20 in a Biotek EL×405 plate washer. The plates were then read in a PerkinElmer TopCount plate reader to measure the quantity of ^3H-labeled peptide bound to the Flashplate surface, measured as disintegrations per minute (dpm) or alternatively, referred to as counts per minute (cpm).
Where dpm=disintegrations per minute, cmpd=signal in assay well, and min and max are the respective minimum and maximum signal controls. […]

[2] = tested on: RKO cells, mono-methyl arginine; experiment: RKO Methylation Assay (In Cell Western for mono-methyl arginine); type: cell-based; details: Homo sapiens
Source text: RKO adherent cells were purchased from ATCC (American Type Culture Collection), Manassas, Va., USA. DMEM/Glutamax medium, penicillin-streptomycin, heat inactivated fetal bovine serum, 0.05% trypsin and D-PBS were purchased from Life Technologies, Grand Island, N.Y., USA. Odyssey blocking buffer, 800CW goat anti-rabbit IgG (H+L) antibody, and Licor Odyssey infrared scanner were purchased from Licor Biosciences, Lincoln, Nebr., USA. Mono-methyl arginine antibody was purchased from Cell Signaling Technology, Danvers, Mass., USA. Methanol was purchased from VWR, Franklin, Mass., USA. 10% Tween 20 was purchased from KPL, Inc., Gaithersburg, Md., USA. DRAQ5 was purchased from Biostatus Limited, Leicestershire, UK.
RKO adherent cells were maintained in growth medium (DMEM/Glutamax medium supplemented with 10% v/v heat inactivated fetal bovine serum and 100 units/mL penicillin-streptomycin) and cultured at 37° C. under 5% CO2.
Cell Treatment, in Cell Western (ICW) for Detection of Mono-Methyl Arginine and DNA Content. […] Compound (100 nL) from a 96-well source plate was added directly to 384 well cell plate. Plates were incubated at 37° C., 5% CO2 for 72 hours. After three days of incubation, plates were brought to room temperature outside of the incubator for ten minutes and blotted on paper towels to remove cell media. 50 μL of ice cold 100% methanol was added directly to each well and incubated for 30 min at room temperature. After 30 min, plates were transferred to a Biotek EL406 plate washer and washed 2 times with 100 μL per well of wash buffer (1×PBS). Next 60 μL per well of Odyssey blocking buffer (Odyssey Buffer with 0.1% Tween 20 (v/v)) were added to each plate and incubated 1 hour at room temperature. Blocking buffer was removed and 20 μL per well of primary antibody was added (mono-methyl arginine diluted 1:200 in Odyssey buffer with 0.1% Tween 20 (v/v)) and plates were incubated overnight (16 hours) at 4° C. Plates were washed 5 times with 100 μL per well of wash buffer. […] The plates were washed 5 times with 100 μL per well wash buffer then 2 times with 100 μL per well of water. Plates were allowed to dry at room temperature then imaged on the Licor Odyssey machine which measures integrated intensity at 700 nm and 800 nm wavelengths. Both 700 and 800 channels were scanned.
Calculations: First, the ratio for each well was determined by:
Each plate included fourteen control wells of DMSO only treatment (minimum activation) as well as fourteen control wells for maximum activation treated with 20 μM of a reference compound. The average of the ratio values for each control type was calculated and used to determine the percent activation for each test well in the plate. Reference compound was serially diluted three-fold in DMSO for a total of nine test concentrations, beginning at 20 μM. Percent activation was determined and EC30 curves were generated using triplicate wells per concentration of compound.

[3] = biochemical evaluation, peptide substrate, read-out: PRMT1 IC50
[4] = single experiment or average of multiple experiments, read-out: PRMT1 biochemical evaluation (numerical)
[5] = RKO, 72 h, read-out: RGG ICW EC30
[6] = In Cell Western EC30, RKO cells, 72 hours, single experiment or average of multiple experiments, read-out: RGG ICW
[7] = In Cell Western, RKO cells, 72 hours, read-out: RGG ICW EC30

T1 sequence (Q99873 other isoform, or with tags, fused parts or gaps): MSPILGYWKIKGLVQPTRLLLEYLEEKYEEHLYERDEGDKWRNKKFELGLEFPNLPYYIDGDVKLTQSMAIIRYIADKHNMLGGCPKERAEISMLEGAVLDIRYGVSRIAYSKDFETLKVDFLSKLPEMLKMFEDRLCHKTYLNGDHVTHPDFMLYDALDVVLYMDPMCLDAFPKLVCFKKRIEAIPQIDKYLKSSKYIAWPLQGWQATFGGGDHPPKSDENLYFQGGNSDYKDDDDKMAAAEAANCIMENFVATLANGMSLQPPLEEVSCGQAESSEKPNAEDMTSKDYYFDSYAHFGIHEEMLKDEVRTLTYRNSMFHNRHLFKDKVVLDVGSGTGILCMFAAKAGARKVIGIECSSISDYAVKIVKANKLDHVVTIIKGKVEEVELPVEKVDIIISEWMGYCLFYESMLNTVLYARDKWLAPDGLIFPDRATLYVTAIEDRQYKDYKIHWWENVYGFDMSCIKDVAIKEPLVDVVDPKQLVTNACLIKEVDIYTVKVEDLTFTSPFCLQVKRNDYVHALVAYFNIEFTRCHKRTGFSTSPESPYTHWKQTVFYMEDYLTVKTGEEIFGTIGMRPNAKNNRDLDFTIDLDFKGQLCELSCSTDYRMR

| Structure (SMILES) | IC50 [1, 3] [µM] | IC50 [1, 4] [µM] | EC30 ([2]; RKO, 72 h, read-out: RGG ICW) [µM] | EC30 [2, 5] [µM] | EC30 [2, 6] [µM] | EC30 [2, 7] [µM] |
| --- | --- | --- | --- | --- | --- | --- |
| CNCCN(C)Cc1n[nH]c2ccc(OC3CCOCC3)cc12 [Compound 29, N^1,N^2-dimethyl-N^1-((5-((tetrahydro-2H-pyran-4-yl)oxy)-1H-indazol-3-yl)methyl)ethane-1,2-diamine] | < 0.1 | 0.0282 | 5.04 | 3.01 to 12 |  |  |
| CNCCN(C)Cc1n[nH]c2ccc(Oc3ccccc3Cl)cc12 [Compound 30] | < 0.1 | 0.0645 | 7.2 | 3.01 to 12 |  |  |
| CNCCN(C)Cc1n[nH]c2cccc(OCCC(C)C)c12 [Compound 31] | ≤ 0.1 | 0.0465 |  |  | 8.24 | 3.01 to 12 |
| CNCCN(C)Cc1nn(C)c2ccc(OCc3ccc(C#N)cc3)cc12 [Compound 32] | 0.101 to 1 | 0.0739 | 8.9 | 3.01 to 12 |  |  |
| CNCCN(C)Cc1n[nH]c2ccc(OCc3ccn(CC(C)C)n3)cc12 [Compound 33] | 0.101 to 1 | 0.0445 |  |  | 9.06 | 3.01 to 12 |
| CNCCN(C)Cc1c2cc(OCc3ccc(C#N)cc3)ccc2nn1C(C)C [Compound 34] | 3.01 to 10 | 0.182 | > 20 | > 12 |  |  |
| CNCCN(C)Cc1n[nH]c2ccc(OC)cc12 [Compound 35] | 3.01 to 10 | 0.187 |  |  | > 20 | > 12 |
| CNCCN(C)Cc1n[nH]c2ccc(O)cc12 [Compound 36, 3-((methyl(2-(methylamino)ethyl)amino)methyl)-1H-indazol-5-ol] | 0.101 to 1 | 6.76 |  |  | > 20 | > 12 |
| CNCCN(C)Cc1n[nH]c2ccc(Oc3ccc(C#N)cc3)cc12 [Compound 37] | 1.01 to 3 | 6.42 |  |  | > 20 | > 12 |
| CNCCN(C)Cc1nn(C2CCN(C(C)=O)CC2)c2ccc(OCc3ccc(C#N)cc3)cc12 [Compound 38] | 3.01 to 10 | 0.552 |  |  | > 20 | > 12 |
| CNCCN(C)Cc1n[nH]c2ccc(Oc3ccc(C(F)(F)F)cc3)cc12 [Compound 39] | < 0.1 | 2.27 | > 20 | > 12 |  |  |
